Reference: patent US11253519B2, “Composition used to improve symptoms of autism spectrum disorder, and method using same for improving symptoms of autism spectrum disorder” (RENASCIENCE CO., LTD., priority 2016, dated 2022)

Legend:
[1] = Vitamin B1 level in whole blood, serum pyridoxamine and pyridoxal levels and Wernicke's encephalopathy in two test subjects on pyridoxamine medication; format: in vivo, human
[2] = Capture of dopamine by glyoxal, free dopamine by HPLC; format: biochemical; settings: 2.5 mM dopamine + 25 mM glyoxal + 25 mM test compound, pH 7.4, room temperature, 30 minutes; glyoxal alone about 30%
Protocol: (§1) The reaction solutions are incubated at room temperature, and the amount of free serotonin or dopamine, which were not captured by glyoxal, in the reaction solutions was measured by HPLC.
(§2) The negative control contained only 5-HT or DP with a buffer (GO and the test compounds were not added) (test samples 1 and 5), and the positive control contained 5-HT or DP and only GO (none of the test compounds was added) (test samples 2 and 6). […] After incubation, the reaction solutions were diluted 10-fold (pH 7.4) with a 0.25 M phosphate buffer, and analyzed by HPLC. The HPLC analysis was performed with instruments produced by Shimadzu Corporation (system controller: SCL-10A vp, auto injector: SIL-10A, degasser: DGU-12A, liquid chromatograph: LC-10AD vp, UV-Vis detector: SPD-10A vp, and column oven: CTO-10AC vp) under the conditions shown in Table 6. The data analysis was performed with Chromatopac C-R7A Plus.

[3] = tested on: ASD patients; settings: cited from earlier work
[4] = Capture of serotonin by glyoxal, free serotonin by HPLC; format: biochemical; settings: 2.5 mM serotonin + 25 mM glyoxal + 25 mM test compound, pH 7.4, room temperature, 2 hours; glyoxal alone about 40%
Protocol: as §1, §2

CC(=C(CCO)SSCC1CCCO1)N(C=O)Cc1cnc(C)nc1N (stereo in doubt) [Fursultiamine, fursultiamine, reference compound]
symptom of Wernicke's encephalopathy ([1]; subject ID No. 3, 14 weeks after start (8 weeks after start of thiamine compound 75 mg/day oral)): disappeared | vitamin B1 level in whole blood ([1]; subject ID No. 3, fursultiamine 75 mg/day oral for 6 weeks with continued pyridoxamine, 12 weeks after start, 28 ng/mL before thiamine): 135 ng/mL | symptoms of Wernicke's encephalopathy ([1]; subject ID No. 6, 11 weeks after start, on thiamine compound): disappeared | vitamin B1 level in whole blood ([1]; subject ID No. 6, fursultiamine 300 mg/day intravenous, then 100 to 50 mg/day oral, with pyridoxamine, 11 weeks after start, 25 ng/mL before thiamine): 150 ng/mL

Cc1ncc(CO)c(C=O)c1O [pyridoxal]
amount of free dopamine relative to the negative control taken as 100% [2]: no free dopamine became detectable | repetitive patterns of behavior of ASD patients ([3]; 30 mg/kg/day, other research denies this efficacy (NPL 6)): effective | amount of free serotonin relative to the negative control taken as 100% [4]: rather decreased

Cc1ncc(CO)c(CO)c1O [pyridoxine]
side effects (irritability, hyperactivity, sound sensitivity, enuresis) ([3]; children with ASD, NPL 8, NPL 9): may cause side effects to develop | verbal intelligence ([3]; children with pervasive developmental disorder who have sensitivity to sound, NPL 7): improvement in verbal intelligence | intelligence quotient (IQ) scores ([3]; children with pervasive developmental disorder, sensitive to sound, expressive language disorder, dyspraxia, high amount, NPL 2): increases in intelligence quotient (IQ) scores
